Reference: US9487508B2, “SGC stimulators” (IRONWOOD PHARMACEUTICALS, INC., priority 2012, dated 2016)

Target: T1, soluble guanylate cyclase (sGC) (Homo sapiens, UniProt Q02108+Q02153)
T1 construct: endogenously expressing soluble guanylate cyclase (sGC); endogenous in cells; host or cells: HEK293
T1 sequence (Q02153 1-619): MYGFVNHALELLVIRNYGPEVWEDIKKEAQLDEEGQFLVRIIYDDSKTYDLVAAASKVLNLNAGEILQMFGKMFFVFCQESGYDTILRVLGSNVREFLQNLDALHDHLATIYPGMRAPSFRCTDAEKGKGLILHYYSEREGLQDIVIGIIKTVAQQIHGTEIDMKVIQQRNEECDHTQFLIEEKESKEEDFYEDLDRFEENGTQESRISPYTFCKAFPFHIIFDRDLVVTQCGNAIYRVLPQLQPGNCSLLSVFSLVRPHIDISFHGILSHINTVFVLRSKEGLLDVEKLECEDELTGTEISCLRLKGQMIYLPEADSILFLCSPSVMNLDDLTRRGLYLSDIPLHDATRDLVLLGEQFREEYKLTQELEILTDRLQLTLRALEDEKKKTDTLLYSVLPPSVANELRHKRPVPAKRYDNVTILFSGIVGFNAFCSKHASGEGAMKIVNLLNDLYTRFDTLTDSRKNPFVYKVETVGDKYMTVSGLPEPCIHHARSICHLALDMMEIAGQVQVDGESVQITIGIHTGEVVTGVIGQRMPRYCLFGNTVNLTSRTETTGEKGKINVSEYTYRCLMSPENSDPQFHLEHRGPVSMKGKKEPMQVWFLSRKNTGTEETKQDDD
T1 sequence (Q02108 1-690): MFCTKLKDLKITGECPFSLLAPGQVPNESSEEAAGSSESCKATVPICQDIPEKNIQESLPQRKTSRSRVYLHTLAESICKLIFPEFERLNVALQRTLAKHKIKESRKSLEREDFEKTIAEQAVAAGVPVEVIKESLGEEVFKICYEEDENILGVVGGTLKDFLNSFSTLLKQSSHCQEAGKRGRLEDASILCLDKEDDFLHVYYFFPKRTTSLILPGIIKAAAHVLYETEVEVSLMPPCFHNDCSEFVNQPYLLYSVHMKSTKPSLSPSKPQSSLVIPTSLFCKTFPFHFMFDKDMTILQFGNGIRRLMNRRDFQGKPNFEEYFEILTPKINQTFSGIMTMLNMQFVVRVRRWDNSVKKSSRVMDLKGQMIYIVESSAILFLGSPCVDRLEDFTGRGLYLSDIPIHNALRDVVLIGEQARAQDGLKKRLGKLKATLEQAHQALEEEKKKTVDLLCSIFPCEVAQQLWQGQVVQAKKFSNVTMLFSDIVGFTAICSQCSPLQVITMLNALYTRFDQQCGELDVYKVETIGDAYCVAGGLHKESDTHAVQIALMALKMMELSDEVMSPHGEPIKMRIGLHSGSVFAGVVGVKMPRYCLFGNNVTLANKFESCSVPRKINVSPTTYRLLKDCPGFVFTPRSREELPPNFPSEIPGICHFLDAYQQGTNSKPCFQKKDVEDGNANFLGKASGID
Experiment: sGC-HEK-cGMP assay with SNP incubation (LC/MS read-out)
Type: cell-based
Settings: 10 μM SNP
Procedure: (Assay Run with SNP Incubation)
Human embryonic kidney cells (HEK293), endogenously expressing soluble guanylate cyclase (sGC), were used to evaluate the activity of test compounds. Compounds stimulating the sGC receptor should cause an increase in the intracellular concentration of cGMP. HEK 293 cells were seeded in Dulbecco's Modification of Eagle's Medium supplemented with fetal bovine serum (10% final) and L-glutamine (2 mM final) in a 200 μL volume at a density of 1×10^5 cells/well in a poly-D-lysine coated 96 well flat bottom plate and grown overnight at 37° C. Medium was aspirated and cells were washed with 1× Hank's Buffered Saline Salt Solution (200 μL). Cells were then incubated for 15 minutes at 37° C. with 200 μL of a 0.5 mM 3-isobutyl-1-methylxanthine (IBMX) solution. Test article and sodium nitroprusside solutions (x μM concentration for test article solution and 10 μM concentration for SNP solution; wherein x is one of the following concentrations);
were then added to the assay mixture (2 μL each) and the resulting mixture incubated at 37° C. for 10 minutes. After the 10 minute incubation, the assay mixture was aspirated and 0.1M HCl (200 μL) was added to the cells. The plate was incubated at 4° C. for 30 minutes in the 0.1M HCl to stop the reaction and lyse the cells. The plates were then centrifuged at 1,200 g for 5 minutes at room temperature. Supernatants were collected and transferred to a new flat bottom 96 well plate for analysis by HPLC-MS. Vehicle controls were carried out using DMSO (1%) solutions. A known sGC stimulator, BAY 41-2272, was used as the positive control. Samples were diluted with an equal volume of 1 M Ammonium Acetate (pH 7) to neutralize samples for better chromatography. A 2×cGMP standard solution was prepared in 0.1 M HCl and then diluted with an equal volume of 1 M Ammonium Acetate, with the following final concentrations in nM: 1024, 512, 256, 128, 64, 32, 16, 8, 4, 2, 1. cGMP concentrations in the test plates were determined from each sample using the LC/MS conditions shown in Table 2 below and the calculated cGMP standard curve. EC50 values were calculated from concentration-response curves generated with GraphPad Prism Software.
The biological activities of some of the compounds of Formula I or Formula Ib determined with the sGC-HEK assay with SNP incubation are summarized in Tables 3A and 3B.

Emax at 10 µM (10 μM compound, 100% = BAY 41-2272 at 10 μM with 100 μM SNP, read-out: HEK assay (Percent Emax at 10 μM)): 80 to 100%
Emax at 30 µM (30 μM compound, 100% = BAY 41-2272 at 10 μM with 100 μM SNP, read-out: HEK assay (Percent Emax at 30 μM)): 80 to 100%
EC50 (top of curve fitted to 100%, read-out: HEK assay EC50-constrained): 1000 to 5000 nM
Compound: Nc1ccnc(-n2cc(-c3ncco3)c(Cc3ccccc3F)n2)n1 [Compound I-2]
